Results on one substance are retold here after patent US10914728B2, “Bioassay for insulin formulations” (priority 2016, dated 2021).

Common to all, as to assay type: cell-based
The subject of experiment [1] is H4IIE cells. Kind of experiment: Sensitivity assessment: ERK phosphorylation, H4IIE cells, Western blotting. The conditions noted are these: insulin for 30 minutes, read-out: Approximate EC50 values, ERK phosphorylation. The procedure:
(§1) For signalling, cells were treated with vehicle or increasing doses of insulin for 30 minutes. Cells were lysed in appropriate buffers and phosphorylation of the insulin receptor, Erk, Akt or Foxo was determined by Western blotting or ELISA, as specified. For mitogenicity, H4IIE cells were incubated with vehicle or increased doses of insulin and cellular growth was measured by detection of thymidine incorporation. […] Uptake and conversion of glucose into lipids were measured after 2 hours by extracting lipids into Microscint-e and measuring radioactivity using a top counter.
(§2) For all methods: to determine EC50 values, data were fitted to a nonlinear 4 parameter regression curve using Graphpad Prism software.
Background: Immunoblotting shows a protein as a band on a membrane.

The subject of experiment [2] is H4IIE cells. The experiment is described as follows: Mitogenicity (thymidine incorporation), H4IIE cells. The conditions noted are these: radioactively labelled thymidine, read-out: Approximate EC50 values, Mitogenecity (thymidine incorporation). On the procedure: as §1, §2
Background: Incorporation of labelled thymidine or its analogues reports DNA synthesis.

The subject of a further experiment is primary rat adipocytes. The experiment is described as follows: Rat free fat cell lipogenesis. The conditions noted are these: Isolated primary rat adipocytes; H3 labelled glucose; 2 hours; read-out: Approximate EC50 values, Rat Free Fat Cell lipogenesis. The procedure: as §1, §2

In the case of human insulin, the values for the EC50 with H4IIE cells [1], in the experiment on H4IIE cells [2] and with primary rat adipocytes were ~2.3 nM, ~1 nM and ~0.02 nM, respectively.
